Data on 2 compounds can be found in patent US8026217B2, “Compositions and methods for treating neural anoxia and spreading depression” (Florida Atlantic University, priority 2007, dated 2011).

One assay concerns respiratory brain slices. The experiment in a line: Neural function in respiratory brain slices during sodium azide-induced anoxia. Conditions: expected. Also on record: species or system mouse or rat. From the text: Neural function in mammals (mouse or rat) is examined pharmacologically during acute anoxia in respiratory brain slices via sodium azide, which chemically induces anoxia. Following administration of the sodium azide, the time until neural failure is monitored. This is done in the presence of a PDE5 inhibitor, 8-bromo-GMP, KT5823, and Cantharidin.

Assay [1] relates to adult Drosophila melanogaster. Type of assay: in vivo. Conditions: sitter adults, volatilized from DMSO 1 hr, 1 mM KT5823, 1 mM Cantharidin, 200 mM DCA, 10 mM 8-Bromo cGMP, 10 mM T-0156, versus DMSO sham. On the procedure: FIG. 9 is a diagram illustrating in vivo treatment of adult Drosophila melanogaster with pharmacological agents. […] Adult sitters were exposed to various drugs known to target components of the PKG pathway (FIG. 8A). These drugs included: 10 mM T0156, a cGMP-specific phosphodiesterase-5 inhibitor, 10 mM 8-Bromo-cGMP, a PKG activator, 1 mM KT5823, a PKG inhibitor, 1 mM Cantharidin, a PP2A inhibitor, and 200 mM DCA, a K^+ channel activator. All drugs were solubilized in dimethyl sulfoxide (DMSO), where flies treated with only DMSO were used as sham controls. […] 10 μL of drug solution was applied to a crushed Kim wipe at the bottom of each 10 mL test vial. An additional Kim wipe was crushed over top of this to prevent direct contact between the fly and solution. 10 flies were then placed in the vial which was capped with a semi-permeable buzz-stopper, covered with a cut-out finger of a large latex glove to prevent chemical vapours from escaping, and incubated in the dark. The flies were subjected to the drug for 1 hr prior to each behavioural assay. In the drug combination experiments, 20 uL of DMSO was used as a control sham, and combinations of two pharmacological treatments were added as two separate 10 uL aliquots.
Whether or not fly PKG levels could be manipulated in vivo using a technique that uses volatilization of pharmacological agents was next examined. The role of these targets in vivo using sitter flies was examined by depositing pharmacological agents dissolved in DMSO on a cellulose tissue, and allowing them to volatize over minutes in an air tight vial at room temperature (FIG. 9). Adults were exposed to the volatilized compound for one hour in the dark and then assayed for locomotory resilience to acute hypoxia. Control sham animals (FIG. 7A) were treated with only DMSO. Compounds were chosen to target different components of the cGMP pathway (FIG. 8A) in tracheal smooth muscle and Chinese hamster ovary cells, where cGMP activates PKG, thereby activating PP2A, which then de-phosphorylates K^+ channels. The hypothesis that inhibition of this pathway would result in an increase in whole cell K^+ channel conductance, thereby leading to increased resilience to anoxic coma onset, was tested.
Locomotory Tolerance Assay during Acute Hypoxia: Ten flies (separated into males or females) from each of the three strains (rover [for^R], sitter [for^S] and for^s2) were selected and placed in three separate vials with food at least 24 hours before each experiment. At the time of the experiment, flies were emptied into 10 mL empty test vials covered with permeable sponge caps of equivalent thickness, allowing for consistent gas exchange. These test vials were then placed into a 600 mL beaker which was covered with parafilm, creating a closed chamber with an escape hole (1 cm diameter). The parafilm top was punctured with a needle connected to a gas tank (by a plastic hose), through which the inert gas argon was expelled. […] The needle tip was fastened to the bottom of the beaker and inserted into a larger sponge of similar texture to the vial sponge caps to ensure that gas expelled from the needle was dispersed equally throughout the beaker. Also, to ensure that all test vial positions in the beaker received equal gas flow, test vial positions were alternated every trial to reduce variability.
The experiment required exposing the test vials with 10 flies in the container to pure argon gas expelled from the tank at a flow rate of 600 cc/min+/−5%. Time of behavioural failure was recorded by observing the fly undergo a seizure, which was quickly followed by an anoxic coma.

“Also recorded” adds a separate entry of the source. Where two headings read alike, the source gives them in different places.

On to `COC(=O)[C@@]1(OC)C[C@H]2O[C@]1(C)n1c3ccccc3c3c4c(c5c6ccccc6n2c5c31)C(=O)N(C)C4` [KT5823, (9S, 10R, 12R)-2,3,9,10,11,12-Hexahydro-10-methoxy-2-9-dimethyl-1-oxo-9,12-epoxy-1H-diindolo-[1,2,3-fg:3′,2′,1′-k1]pyrrolo[3,4-i][1,6]benzodiazocine-10-carboxylic acid methyl ester], for which the “time until neural failure” value in the assay on respiratory brain slices is “neuroprotection and prolonged neural function when subject to anoxia”. Besides, the “time to anoxic coma onset during acute hypoxia, single agents” value in assay [1] was “significant increase in tolerance to acute hypoxia; also recorded: demonstrated significant resilience to anoxic coma”.

As for `Nc1nc2c(nc(Br)n2[C@@H]2O[C@@H]3COP(=O)(O)O[C@H]3[C@H]2O)c(=O)[nH]1` [8-Br-cGMP], the “time until neural failure” value in the assay on respiratory brain slices is “increased sensitivity to anoxia causing early failure of neural function”. Further, the “time to anoxic coma onset during acute hypoxia, single agents” value is listed as “exhibited significant sensitivity to anoxic coma” in assay [1] (listed as 8-Bromo cGMP) and “enhanced sensitivity to acute hypoxia; also recorded: expedited locomotory failure during acute hypoxia of sitters to rover levels” in assay [1] (listed as 8-bromo cGMP).
